Laboratory results: patent publication EP2718307B1, “BETA-HAIRPIN PEPTIDOMIMETICS AS CXC4 ANTAGONISTS” (Polyphor AG, priority 2011, dated 2012)
Read-outs that look alike come from different tables or passages of the source. Bridge positions count the residues as written; N and C are the ends. Square brackets hold non-standard residues; d marks the D form. Peptide text beside a SMILES is read from it. Lys(iPr) = CC(C)NCCCC[C@H](N)C(=O)O; Orn(iPr) = CC(C)NCCC[C@H](N)C(=O)O

Tests used:
CXCR4 receptor = molecular target: T1, CXCR4 receptor (Homo sapiens, UniProt P61073); experiment: Chemotactic assay (cell migration assay): response of Namalwa cells to an SDF-1 gradient; type: cell-based
T1 construct: Namalwa cells (CXCR4 natively expressing non-adherent cells, ATCC CRL-1432); host or cells: Namalwa cells
Description: Namalwa cells (CXCR4 natively expressing non-adherent cells, ATCC CRL-1432) were cultured in RPMI1640 plus 10% FBS, and pen/strept. HELA cells were maintained in RPMI1640 plus 10% FBS, pen/strept and 2 mM L-glutamine. Cos-7 cells were grown in DMEM medium with […] glucose supplemented with 10% FCS, pen/strept and 2 mM L-glutamine. All cell lines were grown at 37 °C at 5% CO2. Cell media, media supplements, PBS-buffer, HEPES, antibiotic/antimycotic, pen/strept, non essential amino acid, L-glutamine, β-mercaptoethanol and sera were purchased from Gibco (Pailsey, UK). All fine chemicals were supplied by Merck (Darmstadt, Germany).
The chemotactic response of Namalwa cells (ATCC CRL-1432) to a gradient of stromal cell-derived factor 1α (SDF-1) was measured using a modified Boyden chamber chemotaxis system (ChemoTx; Neuroprobe). In this system, the upper chamber of each well is separated from the lower chamber containing the chemoattractant SDF-1 by a polycarbonate membrane (5µm pore size). A circular area of that membrane in the region that covers each lower well is enclosed by a hydrophobic mask to retain the cell suspension within this area. The system was prepared by loading the bottom wells with aliquots of […] chemotaxis medium (RPMI 1640 without Phenol red + 0.5% BSA) comprising either appropriate serial dilutions of peptides or no peptide at all in combination with SDF-1 (0.9 nM) or without the chemoattractant. The membrane was placed over the bottom wells, and aliquots of 50 µL of a suspension of Namalwa cells (3.6 x 10^6 cells/mL) in chemotaxis medium, premixed with chemotaxis medium comprising either appropriate serial dilutions of peptides or no peptide at all, was delivered onto each of the hydrophobically limited regions of the upper surface of the membrane. The cells were allowed to migrate into the bottom chamber for 5 h at 37 °C in 5% CO2. After this period, the membrane was removed and its topside was carefully wiped and washed with PBS to eliminate non-migrated cells. Migrated cells were transferred using a "funnel" adaptor to a receiving 96-well plate and the cell number was determined by using the CyQuant™ NF cell proliferation assay (Invitrogen) based on the measurement of cellular DNA content via fluorescent dye binding. Following the manufacturer's directions, 50 µL of CyQuant™ dye reagent/HBSS buffer (1/500 [v/v]) were added to each well of the above mentioned receiving 96-well plate. After incubation for 0.5 h at room temperature the plate was sealed and the fluorescence intensity of each sample was measured by using a Wallac 1420 VICTOR^2™ plate reader (PerkinElmer) with excitation at 485 nm and emission detection at 535 nm. Finally, the data were normalized by using the controls and IC50-values were determined using GraphPad Prism™ (GraphPad) by fitting a logarithmic curve to the averaged datapoints.

[1] = tested on: human red blood cells (hRBC); experiment: Hemolysis; type: cell-based
Description: The peptides were tested for their hemolytic activity against human red blood cells (hRBC). Fresh hRBC were washed four times with phosphate buffered saline (PBS) and centrifuged for 10 min at 3000 x g. Compounds (100 µM) were incubated with 20% hRBC (v/v) for 1 h at 37°C and shaking at 300 rpm. The final erythrocyte concentration was approximately 0.9 x 10^9 cells/mL. A value of 0% and 100% cell lysis, respectively, was determined by incubation of hRBC in the presence of PBS containing 0.001% acetic acid and 2.5% Triton X-100 in H2O respectively. The samples were centrifuged, the supernatants were 8-fold diluted in PBS buffer and the optical densities (OD) were measured at 540 nm. The 100% lyses value (OD540H2O) gave an OD540 of approximately 0.5-1.0. Percent hemolysis was calculated as follows: (OD540peptide/OD540H2O) x 100%. [formula]

[2] = Plasma stability, mouse plasma; type: in vitro ADME
Description: (§1) The stability of the peptides in human and mouse plasma was determined by applying the following method: 346.5 µL/deep well of freshly thawed human plasma (Basler Blutspende-dienst) and mouse plasma (Harlan Sera-Lab, UK), respectively, were spiked with 3.5 µL/well of compound dissolved in DMSO/H2O (90/10 [v/v], 1 mM, triplicate) and incubated at 37° C. At t = 0, 15, 30, 60, 120, 240 and 1440 min aliquots of 50 µL were transferred to filtration plate wells containing 150 µL/well of 2% formic acid in acetonitrile. Following shaking for 2 min the occurred suspensions were filtrated by vacuum. 100 µL of each filtrate were transferred to a propylene microtiter plate and dried under N2. The residual solids were reconstituted by adding 100 µL/well of water/acetonitrile, 95/5 (v/v) + 0.2% formic acid and analyzed by LC/MS as follows: Column: Waters, XBridge C18, mobile phases: (A) water + 0.1% formic acid and (B) acetonitrile/water, 95/5 (v/v) + 0.1% formic acid, gradient: 5%-100% (B) in 1.8 minutes, electrospray ionization, MRM detection (triple quadrupole). The peak areas were determined and triplicate values are averaged. The stability is expressed in percent of the initial value at t = 0. (tx/t0 x 100). By using the TREND function of EXCEL (Microsoft Office 2003) T1/2 were determined.

[3] = Plasma stability, human plasma; type: in vitro ADME
Description: as §1

[4] = Plasma protein binding (ultrafiltration); type: in vitro ADME, human
Description: 495 µL aliquots of human plasma (Basler Blutspendedienst) as well as 495 µL aliquots of PBS were placed in individual deepwells of a polypropylene plate (Greiner) and spiked each with 5 µL of 1 mM solutions of peptides in 90% DMSO. After shaking the plate for 2 min at 600 rpm 150 µL aliquots of the plasma/peptide mixtures were transferred in triplicates to the polypropylene filter plate (10 kDa, Millipore) whereas 150 µL aliquots of the PBS/peptide mixtures were transferred either to the individual wells of the filter plate (filtered controls) or directly into the individual wells of the receiving plate (Greiner) (non-filtered controls). The plate sandwich consisting of filter and receiving plate was incubated for 1 h at 37°C and subsequently centrifuged at 3220 g for 2h at 15 °C. The filtrates in the receiving plate were analysed by LC/MS as follows: Column: Waters, XBridge C18, mobile phases: (A) water + 0.1% formic acid and (B) acetonitrile/water, 95/5 (v/v) + 0.1% formic acid, gradient: 5%-100% (B) in 1.8 min, electrospray ionization, MRM detection (triple quadrupole). The peak areas were determined and triplicate values are averaged. The binding is expressed in percent of the filtered and non-filtered controls by 100-(100x T1h/Tctr). Finally the average of these values is calculated.

[5] = Namalwa cells, SDF-1 0.9 nM, migration 5 h, read-out: IC50 [nM] ± SD, CXCR4 receptor

T1 sequence (P61073 whole entry): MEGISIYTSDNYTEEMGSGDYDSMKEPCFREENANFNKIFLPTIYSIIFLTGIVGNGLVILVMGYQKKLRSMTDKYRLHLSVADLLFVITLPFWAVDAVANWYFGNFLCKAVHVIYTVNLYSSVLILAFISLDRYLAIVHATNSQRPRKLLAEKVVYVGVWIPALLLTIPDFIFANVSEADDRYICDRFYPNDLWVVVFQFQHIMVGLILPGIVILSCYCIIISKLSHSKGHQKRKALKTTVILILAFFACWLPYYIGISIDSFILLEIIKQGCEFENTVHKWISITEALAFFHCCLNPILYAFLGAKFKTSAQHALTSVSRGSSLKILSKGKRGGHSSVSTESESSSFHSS

Row | Structure (SMILES) | IC50 (CXCR4 receptor; [5]) | Hemolysis at 100 µM ([1]; red cells of human, 1 h, 100) | Plasma stability mouse pl. T1/2 [2] | Plasma stability mouse pl. cpd left at 1440 min [2] | Plasma stability human pl. T1/2 [3] | Plasma stability human pl. cpd left at 1440 min [3] | Plasma protein binding [4] | IC50 (CXCR4 receptor) | Hemolysis at 100 µM ([1]; 100 µM, 20% hRBC, 1 h at 37°C) | Plasma stability mouse pl. T1/2 ([2]; mouse plasma, 37° C, last time point 1440 min) | Plasma stability human pl. T1/2 ([3]; human plasma, 37° C, last time point 1440 min)
1 | CC(C)NCCCC[C@@H]1NC(=O)[C@H](CCC(N)=O)NC(=O)[C@H](Cc2ccc(O)cc2)NC(=O)[C@@H]2CSSC[C@H](NC(=O)[C@H](Cc3ccc(O)cc3)NC(=O)[C@H](Cc3c[nH]cn3)NC(=O)[C@H](Cc3ccc(O)cc3)NC(=O)[C@@H]3CCCN3C(=O)[C@H]3CCCN3C1=O)C(=O)N[C@@H](CO)C(=O)N[C@@H](C)C(=O)N1CCC[C@@H]1C(=O)N[C@@H](CCCNC(C)C)C(=O)N[C@@H](CCCNC(=N)N)C(=O)N[C@@H](Cc1ccc(O)cc1)C(=O)N2 [Ex. 1, cyclo(-Tyr^1-His^2-Tyr^3-Cys^4-Ser^5-Ala^6-^DPro^7-Orn(iPr)^8-Arg^9-Tyr^10-Cys^11-Tyr^12-Gln^13-Lys(iPr)^14-^DPro^15-Pro^16-), disulfide bond between Cys^4 and Cys^11] (cyclo(YHYCSA[dP][Orn(iPr)]RYCYQ[Lys(iPr)][dP]P); disulfide 4-11) | 0.42 ± 0.1 nM | 1.0% | 24 h | 100% | 24 h | 77% | 30% |  |  |  | 
2 | COc1ccc(C[C@@H]2NC(=O)[C@H](Cc3c[nH]cn3)NC(=O)[C@H](Cc3ccc(O)cc3)NC(=O)[C@@H]3CCCN3C(=O)[C@H]3CCCN3C(=O)[C@H](CCCCNC(C)C)NC(=O)[C@H](CCC(N)=O)NC(=O)[C@H](Cc3ccc(O)cc3)NC(=O)[C@@H]3CSSC[C@H](NC2=O)C(=O)N[C@@H](CO)C(=O)N[C@@H](C)C(=O)N2CCC[C@@H]2C(=O)N[C@@H](CCCNC(C)C)C(=O)N[C@@H](CCCNC(=N)N)C(=O)N[C@@H](Cc2ccc(O)cc2)C(=O)N3)cc1 [Ex. 2, cyclo(-Tyr^1-His^2-Tyr(Me)^3-Cys^4-Ser^5-Ala^6-^DPro^7-Orn(iPr)^8-Arg^9-Tyr^10-Cys^11-Tyr^12-Gln^13-Lys(iPr)^14-^DPro^15-Pro^16-), disulfide bond between Cys^4 and Cys^11] (cyclo(YHY(Me)CSA[dP][Orn(iPr)]RYCYQ[Lys(iPr)][dP]P); disulfide 4-11) | 0.69 ± 0.43 nM | 1.0% | 24 h | 100% | 24 h | 100% | 48% |  |  |  | 
3 | COc1ccc(C[C@H]2NC(=O)[C@H](C)NC(=O)[C@H](CO)NC(=O)[C@@H]3CSSC[C@H](NC(=O)[C@H](Cc4ccc(O)cc4)NC(=O)[C@H](CCCNC(=N)N)NC(=O)[C@H](CCCNC(C)C)NC2=O)C(=O)N[C@@H](Cc2ccc(O)cc2)C(=O)N[C@@H](CCC(N)=O)C(=O)N[C@@H](CCCCNC(C)C)C(=O)N2CCC[C@@H]2C(=O)N2CCC[C@H]2C(=O)N[C@@H](Cc2ccc(O)cc2)C(=O)N[C@@H](Cc2c[nH]cn2)C(=O)N[C@@H](C)C(=O)N3)cc1 [Ex. 4, cyclo(-Tyr^1-His^2-Ala^3-Cys^4-Ser^5-Ala^6-^DTyr(Me)^7-Orn(iPr)^8-Arg^9-Tyr^10-Cys^11-Tyr^12-Gln^13-Lys(iPr)^14-^DPro^15-Pro^16-), disulfide bond between Cys^4 and Cys^11] (cyclo(YHACSA[dY](Me)[Orn(iPr)]RYCYQ[Lys(iPr)][dP]P); disulfide 4-11) | 0.18 ± 0.09 nM | 0% | 24 h | 60% | 24 h | 94% | 56% |  |  |  | 
4 | COc1ccc(C[C@@H]2NC(=O)[C@H](Cc3c[nH]cn3)NC(=O)[C@H](Cc3ccc(O)cc3)NC(=O)[C@@H]3CCCN3C(=O)[C@H]3CCCN3C(=O)[C@H](CCCCNC(C)C)NC(=O)[C@H](CCC(N)=O)NC(=O)[C@H](Cc3ccc(O)cc3)NC(=O)[C@@H]3CSSC[C@H](NC2=O)C(=O)N[C@@H](CO)C(=O)N[C@@H](C)C(=O)N[C@H](Cc2ccc(OC)cc2)C(=O)N[C@@H](CCCNC(C)C)C(=O)N[C@@H](CCCNC(=N)N)C(=O)N[C@@H](Cc2ccc(O)cc2)C(=O)N3)cc1 [Ex. 6, cyclo(-Tyr^1-His^2-Tyr(Me)^3-Cys^4-Ser^5-Ala^6-^DTyr(Me)^7-Orn(iPr)^8-Arg^9-Tyr^10-Cys^11-Tyr^12-Gln^13-Lys(iPr)^14-^DPro^15-Pro^16-), disulfide bond between Cys^4 and Cys^11] (cyclo(YHY(Me)CSA[dY](Me)[Orn(iPr)]RYCYQ[Lys(iPr)][dP]P); disulfide 4-11) |  |  |  |  |  |  |  | 0.09 ± 0.09 nM | 2% | 24 h | 24 h
